Experiment [1] has as its system HEK293FT cells. The experiment in a line: HGind-H composed of two plasmids transfected into HEK293FT cells, D2eGFP fluorescence intensity after D-2-HG addition. The format is cell-based. The settings on record: ratio 0.4.
Description: (3) The plasmid was transfected into HEK293FT cells with lipofectamine 3000; a transfection plasmid combination 1 was pCDNA3.1(+)-DhdR-KRAB and pCDNA3.1(+)-DhdO10-D2eGFP or a plasmid combination 2 was pCDNA3.1(+)-KRAB-DhdR and pCDNA3.1(+)-DhdO10-D2eGFP; 3*105/well of cells were seeded in a 12-well plate, pcDNA3.1(+)-DhdO10-D2eGFP was added at lug/well, and the ratio of the recombinant transcriptional repressor plasmid to PcDNA3.1(+)-DhdO10-D2eGFP was 0:1, 1:1, 3:1.
(4) On the next day, D-2-HG was added at concentrations of 0 mM, 1 mM, 5 mM, and 10 mM; 64 h after transfection, a fluorescence microscope was used to take pictures, the supernatant was aspirated, a fluorescence microplate reader measured fluorescence intensities, and results were shown in FIG. 2.
(1) pCDNA3.1(+)-DhdR-KRAB and pCDNA3.1(+)-DhdO10-D2eGFP were selected, and then transfected using liposomes as above; the ratio of the two plasmids was set to 0, 0.1, 0.3, 0.4, 0.5, 0.75, 1.
(2) On the next day, D-2-HG was added at concentrations of 0 mM and 5 mM; and 64 h after transfection, a fluorescence microscopy was used to take pictures, the supernatant was aspirated, and a fluorescence microplate reader measured a fluorescence intensity. […]
(2) On the next day, D-2-HG was added at concentrations of 0, 0.5, 1, 5, 10, and 20 mM; and a fluorescence microplate reader measured a fluorescence intensity.
Experiment [2] deals with HT1080-DHDO14 tumor. Put plainly: HGind-H control of suicide gene in animals, HT1080 vs HT1080-DHDO14 tumors with GCV. Format: in vivo, Balb/c nude crlj. Particulars: GCV 50 mg/kg per day i.p. As to the method: (1) 18 Balb/c nude crlj which are male and 5 weeks old were purchased. HT1080 and HT-1080-DHDO14 cells were resuspended with PBS and injected at 1.5×10^6 cells/side*mouse (volume: 100 μl), where HT1080 was injected into the left backs of the mice and HT1080-DHDO14 was injected into the right backs of the mice.
(2) The mice were divided into two groups, the control group (n=8) was injected with normal saline, and the experimental group (n=10) was injected with ganciclovir (GCV).
(3) From the 5th to the 12th day of tumor model construction, each mouse in the control group was intraperitoneally injected with normal saline at 100 μl/day, and each mouse in the experimental group was intraperitoneally injected with GCV at 50 mg/kg per day. Starting from the 8th day, the long and short diameters of tumors of the mice were measured every day.
(4) The mice were killed on the 14th day and the tumors of the mice were weighed.

Consider `O=C(O)CC[C@@H](O)C(=O)O` [D-2-HG, D-2-hydroxyglutarate], for which the “fluorescence intensity (D2eGFP expression)” value in experiment [1] (0.5 mM D-2-HG vs 0 mM group, pCDNA3.1(+)-DhdR-KRAB and DhdO7-D2eGFP) is “significant difference”. Also, the “fluorescence intensity (D2eGFP expression), dose response” value in experiment [1] (D-2-HG 0, 0.5, 1, 5, 10, 20 mM) is “as the concentration increases, the fluorescence intensity becomes larger and larger”.

Consider `Nc1nc(O)c2ncn(COC(CO)CO)c2n1` [GCV, ganciclovir], for which the “size of HT1080-DHDO14 tumor vs HT1080 tumor on the left side” value in experiment [2] (day 5 to 12) is “significantly smaller”. For the same molecule, the “volume of the HT1080-DHDO14 tumor vs the other three groups” value in experiment [2] (later stage of measurement) was “significantly less”. Moreover, the “weight of the HT1080-DHDO14 tumor vs the other 3 groups” value in experiment [2] (mice killed on the 14th day) is on record as “significantly less”.

Values taken from patent publication US20260103726A1, “CONTROL SYSTEM FOR INDUCING TRANSGENE EXPRESSION BY MEANS OF D-2-HG, AND CONSTRUCTION METHOD THEREFOR AND USES THEREOF” (priority 2023, published 2026).
